Data published in patent publication US4879421A, “Method for preparing optically active binaphthol and spiroibiindanol” (General Electric Company, priority 1988, dated 1989).

Target: T1, cholesterol esterase (Bos taurus, UniProt P30122)
T1 construct: assayed with taurocholate in ether/phosphate emulsion
T1 sequence (P30122 19-597): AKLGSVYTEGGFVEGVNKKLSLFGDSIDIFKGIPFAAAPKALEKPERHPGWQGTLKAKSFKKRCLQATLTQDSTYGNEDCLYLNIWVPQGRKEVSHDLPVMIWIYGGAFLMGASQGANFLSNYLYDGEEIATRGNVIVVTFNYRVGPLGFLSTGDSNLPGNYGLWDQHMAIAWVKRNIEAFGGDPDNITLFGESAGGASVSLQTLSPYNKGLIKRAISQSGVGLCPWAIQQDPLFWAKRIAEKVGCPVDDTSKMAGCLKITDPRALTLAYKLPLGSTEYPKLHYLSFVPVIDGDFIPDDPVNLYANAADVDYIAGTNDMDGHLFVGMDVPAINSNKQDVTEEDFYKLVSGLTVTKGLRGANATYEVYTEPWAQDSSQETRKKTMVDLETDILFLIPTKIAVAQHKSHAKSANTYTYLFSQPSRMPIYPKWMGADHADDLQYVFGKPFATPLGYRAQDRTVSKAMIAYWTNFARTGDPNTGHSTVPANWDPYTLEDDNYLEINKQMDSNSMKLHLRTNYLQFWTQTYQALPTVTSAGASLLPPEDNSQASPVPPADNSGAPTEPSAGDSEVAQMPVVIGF
Test: Cholesterol esterase catalyzed hydrolysis of esters, relative rate by pH stat
Assay type: biochemical
Details: commercial cholesterol esterase, 0.1 N NaOH to hold pH 7.0, emulsion of ester (1.0 mmol) in ethyl ether (10 mL) and 10 mM phosphate buffer pH 7.0 with 30 mg sodium taurocholate
Procedure: In similar manner as Example 2 commercial samples of cholesterol esterase are shown to catalyze the enantiospecific hydrolysis of diesters of 1,1'-bi-2-naphthol listed in the following Table.
^(a) The relative rate of hydrolysis is measured using a pH stat whic
measures the amount of base (0.1 N NaOH) required to maintain the pH at
7.0 for an emulsion of ester (1.0 mmol) dissolved in ethyl ether (10
milliliter) and aqueous buffer (10 milliliters of 10 mM phosphate, pH 7.0
containing 30 milligrams sodium taurocholate).

Relative Rate (relative rate of hydrolysis)	Structure (SMILES)
1.1	CCC(=O)Oc1ccc2ccccc2c1-c1c(OC(=O)CC)ccc2ccccc12
0.5	CCCC(=O)Oc1ccc2ccccc2c1-c1c(OC(=O)CCC)ccc2ccccc12 [Butyrate]
1.1	CC(=O)Oc1ccc2ccccc2c1-c1c(OC(C)=O)ccc2ccccc12 [acetate]
0.5	CCCCCC(=O)Oc1ccc2ccccc2c1-c1c(OC(=O)CCCCC)ccc2ccccc12 [hexanoate]
0.4	CCCCCCCC(=O)Oc1ccc2ccccc2c1-c1c(OC(=O)CCCCCCC)ccc2ccccc12 [octanoate]

Structure (SMILES)	Relative Rate (relative rate of hydrolysis)
CC(=O)O[C@H]1CC[C@@]2(C)C(=CC[C@H]3[C@@H]4CC[C@H]([C@H](C)CCCC(C)C)[C@@]4(C)CC[C@@H]32)C1 [reference compound]	1.0
